Columns and labels:
Assay type in all cases: cell-based
[1] = tested on: Klebsiella pneumonia; test: MIC against Gram-negative bacteria: Klebsiella pneumonia; settings: 5×10^5 CFU/mL; for MIC against K. pneumonia: Klebsiella pneumonia
In short: (§1)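 Bacteria grown in LB at 37° C to McFarland 0.5, resuspended and seeded at 5×10^5 CFU/mL in 96-well plates. Purified human EGF-domain proteins two-fold serially diluted, triplicate wells; cultured at 37° C, shaking 175 rpm. MIC = lowest protein concentration with no growth.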

[2] = tested on: Pseudomonas aeruginosa; test: MIC against Gram-negative bacteria: Pseudomonas aeruginosa; settings: 5×10^5 CFU/mL; for MIC against P. aeruginosa: Pseudomonas aeruginosa
In short: as §1

[3] = tested on: Moraxella catarrhalis; test: MIC against Gram-negative bacteria: Moraxella catarrhalis; settings: 5×10^5 CFU/mL; for MIC against M. catarrhalis: Moraxella catarrhalis
In short: as §1

[4] = tested on: Proteus mirabilis; test: MIC against Gram-negative bacteria: Proteus mirabilis; settings: 5×10^5 CFU/mL; for MIC against P. mirabilis: Proteus mirabilis
In short: as §1

[5] = tested on: Aeromonas hydrophila; test: MIC against Gram-negative bacteria: Aeromonas hydrophila; settings: 5×10^5 CFU/mL; for MIC against A. hydrophila: Aeromonas hydrophila
In short: as §1

[6] = tested on: Serratia marcescens; test: MIC against Gram-negative bacteria: Serratia marcescens; settings: 5×10^5 CFU/mL; for MIC against S. marcescens: Serratia marcescens
In short: as §1

[7] = tested on: E. coli BL21; test: MIC against Gram-negative bacteria: E. coli BL21; settings: 5×10^5 CFU/mL
In short: as §1

[8] = tested on: Enterobacter cloacae; test: MIC against Gram-negative bacteria: Enterobacter cloacae; settings: 5×10^5 CFU/mL; for MIC against E. cloacae: Enterobacter cloacae
In short: as §1

[9] = tested on: Proteus vulgaris; test: MIC against Gram-negative bacteria: Proteus vulgaris; settings: 5×10^5 CFU/mL; for MIC against P. vulgaris: Proteus vulgaris
In short: as §1

[10] = tested on: Citrobacter diversus; test: MIC against Gram-negative bacteria: Citrobacter diversus; settings: 5×10^5 CFU/mL; for MIC against C. diversus: Citrobacter diversus
In short: as §1

[11] = tested on: E. coli DH5α; test: Antibacterial activity: MIC and growth curve against E. coli DH5α in 96-well plate; settings: minimal inhibitory concentration against E. coli DH5α; 96-well plate, 5×10^5 CFU/mL, 37° C., judged after 8 h
In short: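 Log-phase bacteria (OD600 ~0.5) resuspended in LB at 5×10^5 CFU/mL, exposed to recombinant protein at 50, 25, 12.5 μg/mL final in triplicate, 37 °C shaking at 175 rpm. OD600 read every 30 min; MIC is lowest concentration showing no growth.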

[12] = 10 h cultivation at 37° C., two-fold serial dilution

For “PRT884 (HSDPCENNPCLHGGTCNANGTMYGCSCDQGFAGENCE; listed as Homo sapiens)”, the “MIC (μg/mL) K. pneumonia” value ([1]; 10 h cultivation at 37° C.) was 12.5 µg/mL, the “MIC (μg/mL) P. aeruginosa” value ([2]; 10 h cultivation at 37° C.) was 12.5 µg/mL and the “MIC (μg/mL) M. catarrhalis” value ([3]; 10 h cultivation at 37° C.) was 12.5 µg/mL. The “MIC (μg/mL) P. mirabilis” value ([4]; 10 h cultivation at 37° C.) was 25 µg/mL, the “MIC (μg/mL) A. hydrophila” value ([5]; 10 h cultivation at 37° C.) was 12.5 µg/mL and the “MIC (μg/mL) S. marcescens” value ([6]; 10 h cultivation at 37° C.) was 25 µg/mL. For the same substance, the “MIC (μg/mL) E. coli BL21” value ([7]; 10 h cultivation at 37° C.) was 12.5 µg/mL, the “MIC (μg/mL) E. cloacae” value ([8]; 10 h cultivation at 37° C.) was 12.5 µg/mL and the “MIC (μg/mL) P. vulgaris” value ([9]; 10 h cultivation at 37° C.) was 50 µg/mL. For the same substance, the “MIC (μg/mL) C. diversus” value ([10]; 10 h cultivation at 37° C.) was 12.5 µg/mL and the MIC [11] was 12.5 mg/L.

“PRT886 (RGPRCSQPGETCLNGGKCEAANGTEACVCGGAFVGPRCQ; listed as Homo sapiens)” was tested, and the “MIC (μg/mL) K. pneumonia” value ([1]; 10 h cultivation at 37° C.) was 12.5 µg/mL, the “MIC (μg/mL) P. aeruginosa” value ([2]; 10 h cultivation at 37° C.) was 25 µg/mL and the “MIC (μg/mL) M. catarrhalis” value ([3]; 10 h cultivation at 37° C.) was 12.5 µg/mL. For the same substance, the “MIC (μg/mL) P. mirabilis” value ([4]; 10 h cultivation at 37° C.) was 25 µg/mL, the “MIC (μg/mL) A. hydrophila” value ([5]; 10 h cultivation at 37° C.) was 12.5 µg/mL and the “MIC (μg/mL) S. marcescens” value ([6]; 10 h cultivation at 37° C.) was 25 µg/mL. The “MIC (μg/mL) E. coli BL21” value ([7]; 10 h cultivation at 37° C.) was 12.5 µg/mL, the “MIC (μg/mL) E. cloacae” value ([8]; 10 h cultivation at 37° C.) was 25 µg/mL and the “MIC (μg/mL) P. vulgaris” value ([9]; 10 h cultivation at 37° C.) was 12.5 µg/mL. For the same substance, the “MIC (μg/mL) C. diversus” value ([10]; 10 h cultivation at 37° C.) was 25 µg/mL and the MIC [11] was 25 mg/L.

“PRT602 (CKCHPQGSVGSSCSRLGGQCQCKPLVVGRCCDRCSTGSYDLGHHGCHP; listed as Homo sapiens)” was tested, and the “MIC K. pneumonia” value ([1]; 96-well plate, 37° C., 10 h) was 12.5 mg/L, the “MIC P. aeruginosa” value ([2]; 96-well plate, 37° C., 10 h) was 50 mg/L and the “MIC M. catarrhalis” value ([3]; 96-well plate, 37° C., 10 h) was 12.5 mg/L. The “MIC P. mirabilis” value ([4]; 96-well plate, 37° C., 10 h) was 50 mg/L, the “MIC A. hydrophila” value ([5]; 96-well plate, 37° C., 10 h) was 12.5 mg/L and the “MIC S. marcescens” value ([6]; 96-well plate, 37° C., 10 h) was 12.5 mg/L. The “MIC E. coli BL21” value ([7]; 96-well plate, 37° C., 10 h) was 12.5 mg/L, the “MIC E. cloacae” value ([8]; 96-well plate, 37° C., 10 h) was 50 mg/L and the “MIC P. vulgaris” value ([9]; 96-well plate, 37° C., 10 h) was 25 mg/L. For the same substance, the “MIC C. diversus” value ([10]; 96-well plate, 37° C., 10 h) was 50 mg/L and the MIC [11] was 50 mg/L.

In the case of “PRT1139 (RYNLCDLLHNPCRNNSTCLALVDANQHCICREEFEGKNCE; listed as Homo sapiens)”, the “MIC K. pneumonia” value [1, 12] is reported as 25 mg/L, the “MIC P. aeruginosa” value [2, 12] is reported as 12.5 mg/L and the “MIC M. catarrhalis” value [3, 12] is reported as 12.5 mg/L. For the same substance, the “MIC P. mirabilis” value [4, 12] was 50 mg/L, the “MIC A. hydrophila” value [5, 12] was 12.5 mg/L and the “MIC S. marcescens” value [6, 12] was 25 mg/L. The “MIC E. coli BL21” value [7, 12] was 25 mg/L, the “MIC E. cloacae” value [8, 12] was 50 mg/L and the “MIC P. vulgaris” value [9, 12] was 12.5 mg/L. For the same substance, the “MIC C. diversus” value [10, 12] was 50 mg/L and the MIC [11] was 12.5 mg/L.

With “PRT821 (DVDECRTHNGGCQHRCVNTPGSYLCECKPGFRLHTDSRTCL; listed as Homo sapiens)” the “MIC (μg/mL) K. pneumonia” value ([1]; 10 h cultivation at 37° C.) was 25 µg/mL, the “MIC (μg/mL) P. aeruginosa” value ([2]; 10 h cultivation at 37° C.) was 12.5 µg/mL and the “MIC (μg/mL) M. catarrhalis” value ([3]; 10 h cultivation at 37° C.) was 12.5 µg/mL. The “MIC (μg/mL) P. mirabilis” value ([4]; 10 h cultivation at 37° C.) was 50 µg/mL, the “MIC (μg/mL) A. hydrophila” value ([5]; 10 h cultivation at 37° C.) was 50 µg/mL and the “MIC (μg/mL) S. marcescens” value ([6]; 10 h cultivation at 37° C.) was 50 µg/mL. The “MIC (μg/mL) E. coli BL21” value ([7]; 10 h cultivation at 37° C.) was 12.5 µg/mL, the “MIC (μg/mL) E. cloacae” value ([8]; 10 h cultivation at 37° C.) was 25 µg/mL and the “MIC (μg/mL) P. vulgaris” value ([9]; 10 h cultivation at 37° C.) was 12.5 µg/mL. The “MIC (μg/mL) C. diversus” value ([10]; 10 h cultivation at 37° C.) was 25 µg/mL and the MIC [11] was 12.5 mg/L.

“PRT1319 (SMGDCGPTGLAQHCHLHARCVSQEGVARCRCLDGFEGDGFS; listed as Homo sapiens)” was tested, and the “MIC against K. pneumonia” value ([1]; 96-well plate, 37° C., 10 h) was 25 mg/L, the “MIC against P. aeruginosa” value ([2]; 96-well plate, 37° C., 10 h) was 12.5 mg/L and the “MIC against M. catarrhalis” value ([3]; 96-well plate, 37° C., 10 h) was 25 mg/L. For the same substance, the “MIC against P. mirabilis” value ([4]; 96-well plate, 37° C., 10 h) was 25 mg/L, the “MIC against A. hydrophila” value ([5]; 96-well plate, 37° C., 10 h) was 25 mg/L and the “MIC against S. marcescens” value ([6]; 96-well plate, 37° C., 10 h) was 12.5 mg/L. The “MIC against E. coli BL21” value ([7]; 96-well plate, 37° C., 10 h) was 50 mg/L, the “MIC against E. cloacae” value ([8]; 96-well plate, 37° C., 10 h) was 25 mg/L and the “MIC against P. vulgaris” value ([9]; 96-well plate, 37° C., 10 h) was 12.5 mg/L. The “MIC against C. diversus” value ([10]; 96-well plate, 37° C., 10 h) was 12.5 mg/L and the MIC [11] was 12.5 mg/L.

“PRT1347 (NVDECLSQPCKNGATCKDGANSFRCLCAAGFTGSHCE; listed as Homo sapiens)” was tested, and the “MIC against K. pneumonia” value ([1]; 10 h cultivation at 37° C.) was 50 mg/L, the “MIC against P. aeruginosa” value ([2]; 10 h cultivation at 37° C.) was 25 mg/L and the “MIC against M. catarrhalis” value ([3]; 10 h cultivation at 37° C.) was 25 mg/L. For the same substance, the “MIC against P. mirabilis” value ([4]; 10 h cultivation at 37° C.) was 50 mg/L, the “MIC against A. hydrophila” value ([5]; 10 h cultivation at 37° C.) was 25 mg/L and the “MIC against S. marcescens” value ([6]; 10 h cultivation at 37° C.) was 12.5 mg/L. For the same substance, the “MIC against E. coli BL21” value ([7]; 10 h cultivation at 37° C.) was 12.5 mg/L, the “MIC against E. cloacae” value ([8]; 10 h cultivation at 37° C.) was 25 mg/L and the “MIC against P. vulgaris” value ([9]; 10 h cultivation at 37° C.) was 100 mg/L. The “MIC against C. diversus” value ([10]; 10 h cultivation at 37° C.) was 12.5 mg/L and the MIC [11] was 25 mg/L.
